The values that follow come from patent publication EP1068805A1, “Dietetic foods and pharmaceutical preparations inhibiting blood coagulation” (CPC INTERNATIONAL INC., priority 1996, dated 1997).

Where two headings read alike, the source gives them in different places.

Assay [1] concerns the target T1, Υ-glutamylcarboxylase (Rattus norvegicus, UniProt O88496).
T1 sequence (O88496 1-758): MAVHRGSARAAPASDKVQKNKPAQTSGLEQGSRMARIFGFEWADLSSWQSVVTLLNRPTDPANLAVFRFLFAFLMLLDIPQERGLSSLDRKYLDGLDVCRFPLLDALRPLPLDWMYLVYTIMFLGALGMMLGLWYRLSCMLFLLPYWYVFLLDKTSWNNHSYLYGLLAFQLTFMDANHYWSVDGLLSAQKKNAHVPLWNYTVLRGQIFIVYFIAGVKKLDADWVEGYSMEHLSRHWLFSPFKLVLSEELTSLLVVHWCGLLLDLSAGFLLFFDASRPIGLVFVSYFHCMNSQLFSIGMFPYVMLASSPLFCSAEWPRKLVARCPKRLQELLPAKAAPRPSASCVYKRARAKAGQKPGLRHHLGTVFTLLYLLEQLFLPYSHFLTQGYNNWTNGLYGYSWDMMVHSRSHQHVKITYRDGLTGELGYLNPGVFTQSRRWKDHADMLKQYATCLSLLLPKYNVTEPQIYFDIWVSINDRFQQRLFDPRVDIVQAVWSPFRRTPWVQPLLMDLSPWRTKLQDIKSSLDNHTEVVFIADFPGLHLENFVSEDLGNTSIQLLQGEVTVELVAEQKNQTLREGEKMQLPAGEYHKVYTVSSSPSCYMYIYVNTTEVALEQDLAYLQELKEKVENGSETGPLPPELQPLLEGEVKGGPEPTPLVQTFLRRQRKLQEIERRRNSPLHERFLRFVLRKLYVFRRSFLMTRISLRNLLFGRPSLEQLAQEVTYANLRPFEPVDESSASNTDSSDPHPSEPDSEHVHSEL
As to the kind of experiment: Inhibition of carboxylase activity in salt-washed liver microsomes, rat system. In kind it is biochemical, rats of the Lewis strain. The note with it: cofactor KH2; mean of triplicate experiments with S.E.M.; read-out: I-50 (µM) in rat system. An excerpt:
(§1) Prenylquinones like phylloquinone (vitamin K1), ubiquinone and plastoquinone function as co-enzymes during the conversion of glutamate into γ-carboxyl-glutamate (Gla), which is an essential step in the formation of the blood coagulation factors. The active form of vitamin K is the quinol (KH2), the oxidation of which provides the energy required for Gla formation. In this reaction KH2 is converted into vitamin K epoxide (KO), which is recycled in two steps by the action of an enzyme called KO-reductase.
(§2) In vitro systems were used to test either the γ-glutamylcarboxylase or KO-reductase. Salt-washed microsomes were prepared from the livers of normal cows and from normal and vitamin K-deficient rats of the Lewis strain.
(§3) Inhibition curves were prepared at a wide concentration range of prenylquinones (UQ-9, UQ-10, and PQ-9) using the cofactor vitamin K either in its quinol, its quinone, or in its epoxide form. From these curves the inhibitor concentrations required for 50% inhibition (I-50) were calculated (dotted lines in Fig. 1) for the various carboxylating enzyme systems from the cow as well as from rats. Incubations were performed under standard conditions, the inhibitors were added after solubilization in Triton X- 114. All points in Fig. 1 represent the means of duplicate experiments. 1-50 values were calculated as shown by the dotted lines.
Background: Liver microsomes are a subcellular fraction often used to study metabolism.

Assay [2] concerns the target Υ-glutamylcarboxylase. As to the kind of experiment: Inhibition of carboxylase activity in salt-washed liver microsomes, bovine system. In kind it is biochemical. The note with it: mean of triplicate experiments with S.E.M., read-out: I-50 (µm) in bovine system.
Text: as §1, §2, §3

The target in assay [3] is T2, Υ-glutamylcarboxylase (Bos taurus, UniProt Q07175).
T2 sequence (Q07175 2-758): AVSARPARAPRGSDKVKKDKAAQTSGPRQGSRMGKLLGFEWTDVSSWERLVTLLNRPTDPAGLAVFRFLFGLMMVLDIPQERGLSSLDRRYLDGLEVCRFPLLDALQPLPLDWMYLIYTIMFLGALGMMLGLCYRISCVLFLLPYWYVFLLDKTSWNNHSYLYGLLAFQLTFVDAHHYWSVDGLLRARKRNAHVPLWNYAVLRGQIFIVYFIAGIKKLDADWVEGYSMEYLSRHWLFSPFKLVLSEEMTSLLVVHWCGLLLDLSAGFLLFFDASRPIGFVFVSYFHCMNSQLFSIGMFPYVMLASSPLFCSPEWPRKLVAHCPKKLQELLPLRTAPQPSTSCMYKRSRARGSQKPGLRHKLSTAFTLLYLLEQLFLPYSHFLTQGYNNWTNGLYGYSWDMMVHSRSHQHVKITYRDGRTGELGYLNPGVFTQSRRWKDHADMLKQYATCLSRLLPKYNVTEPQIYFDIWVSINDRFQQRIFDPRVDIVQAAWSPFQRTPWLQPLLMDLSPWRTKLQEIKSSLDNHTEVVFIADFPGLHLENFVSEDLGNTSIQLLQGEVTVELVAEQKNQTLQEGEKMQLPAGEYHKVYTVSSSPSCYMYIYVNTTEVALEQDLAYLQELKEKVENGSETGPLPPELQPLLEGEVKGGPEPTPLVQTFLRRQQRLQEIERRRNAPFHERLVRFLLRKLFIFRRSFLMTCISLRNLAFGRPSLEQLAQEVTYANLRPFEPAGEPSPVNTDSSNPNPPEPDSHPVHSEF
The assay is described as above. In kind it is biochemical. The note with it: cofactor KH2; mean of triplicate experiments with S.E.M.; read-out: I-50 (µm) in bovine system.
Text: as §1, §2, §3

The subject of assay [4] is plasma prothrombin. Put plainly: Effect of dietary oils on plasma prothrombin concentration (rat feeding study). In kind it is in vivo, Wistar rats. The settings on record: animal data extrapolated to adult reference person of about 60 kg.

`COC1=C(OC)C(=O)C(CC=C(C)CCC=C(C)CCC=C(C)CCC=C(C)CCC=C(C)CCC=C(C)CCC=C(C)CCC=C(C)CCC=C(C)CCC=C(C)C)=C(C)C1=O` [UQ-10, ubiquinone-10]: the IC50 amounted to 36 ± 7 µM in assay [1], 76 ± 5 µM in assay [2] (cofactor K), 91 ± 15 µM in assay [2] (cofactor KO) and 110 ± 17 µM in assay [3].
Take `COC1=C(OC)C(=O)C(CC=C(C)CCC=C(C)CCC=C(C)CCC=C(C)CCC=C(C)CCC=C(C)CCC=C(C)CCC=C(C)CCC=C(C)C)=C(C)C1=O` [UQ-9, ubiquinone-9]: the IC50 is 25 ± 6 µM in assay [1], 86 ± 12 µM in assay [2] (cofactor K), 72 ± 8 µM in assay [2] (cofactor KO) and 105 ± 14 µM in assay [3]. Further, in assay [4], the “effective dose extrapolated to humans” value was “about 40 mg”.
In the case of `CC(C)=CCC/C(C)=C/CC/C(C)=C/CC/C(C)=C/CC/C(C)=C/CC/C(C)=C/CC/C(C)=C/CC/C(C)=C/CC/C(C)=C/CC1=CC(=O)C(C)=C(C)C1=O` [PQ-9, plastoquinone], the IC50 turned out to be 39 ± 10 µM in assay [1], 59 ± 4 µM in assay [2] (cofactor K), 41 ± 7 µM in assay [2] (cofactor KO) and 85 ± 11 µM in assay [3].
